Assay results reported in ChEMBL document CHEMBL1201862, “PubChem BioAssay data set” (2004).
Active and inactive are the calls of the source.

How the values were obtained:
[1] = cytotoxicity toward NIH3T3 fibroblasts, dose response, counter-screen, cell-based, ATP luminescence, mouse fibroblasts (AID 2010); type: functional;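 note: cells exposed to compound for about 90 hours before reading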
[2] = inhibitors of intracellular T. cruzi replication, confirmation, NIH3T3 host cells, beta-gal luminescence (AID 2044); type: functional, cell-based;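 note: intracellular parasites grown in NIH/3T3 mouse fibroblasts as host cells; luminescent beta-galactosidase reporter signal from transgenic T. cruzi replicating inside host cells; inhibitors lower the luminescence signal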
[3] = Luminescence Cell-Based Dose Retest to Confirm Inhibitors of Cancer Stem Cells. [Related pubchem assays (depositor defined):AID2717, AID2721]; type: functional; conditions: Homo sapiens
[4] = target: T1, Cytochrome P450 1A2 (Homo sapiens, UniProt P05177);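 note: PubChem cytochrome P450 panel assay, CYP1A2 panel member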
T1 sequence (P05177 whole entry): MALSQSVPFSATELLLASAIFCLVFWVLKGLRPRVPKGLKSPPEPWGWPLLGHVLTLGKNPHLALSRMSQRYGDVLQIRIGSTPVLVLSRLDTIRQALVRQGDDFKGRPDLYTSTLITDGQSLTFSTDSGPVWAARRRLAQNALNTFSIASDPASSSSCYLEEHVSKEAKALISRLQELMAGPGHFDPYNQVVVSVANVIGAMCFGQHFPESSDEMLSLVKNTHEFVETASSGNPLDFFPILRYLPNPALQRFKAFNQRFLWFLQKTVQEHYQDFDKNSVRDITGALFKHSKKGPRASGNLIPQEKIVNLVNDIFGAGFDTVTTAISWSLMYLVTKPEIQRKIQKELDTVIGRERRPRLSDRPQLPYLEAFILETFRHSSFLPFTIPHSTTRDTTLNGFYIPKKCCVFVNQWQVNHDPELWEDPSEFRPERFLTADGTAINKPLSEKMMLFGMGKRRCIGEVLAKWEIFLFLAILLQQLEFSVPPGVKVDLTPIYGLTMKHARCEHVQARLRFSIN

[5] = target: Cytochrome P450 2C9 (Homo sapiens, UniProt P11712)
[6] = target: Cytochrome P450 2C19 (Homo sapiens, UniProt P33261); assay: Cytochrome panel assay with activity outcomes. Panel member name: p450-cyp2c19 Compounds with AC50 equal or less than 10 uM are considered active; type: functional
[7] = target: Cytochrome P450 3A4 (Homo sapiens, UniProt P08684);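 note: CYP3A4 tested as one member of a cytochrome P450 panel screen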
[8] = system: INS1; assay: beta cell apoptosis inhibitors, cytokine rescue, dose response, luminescence, retest (AID 449756); type: functional, cell-based; conditions: Rattus norvegicus;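 note: cell death triggered by IL-1 beta plus TNF-alpha plus IFN-gamma mixture; protective hits raise ATP signal compared with cytokine alone wells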

Cytochrome P450 2C19, sequence (P33261 whole entry): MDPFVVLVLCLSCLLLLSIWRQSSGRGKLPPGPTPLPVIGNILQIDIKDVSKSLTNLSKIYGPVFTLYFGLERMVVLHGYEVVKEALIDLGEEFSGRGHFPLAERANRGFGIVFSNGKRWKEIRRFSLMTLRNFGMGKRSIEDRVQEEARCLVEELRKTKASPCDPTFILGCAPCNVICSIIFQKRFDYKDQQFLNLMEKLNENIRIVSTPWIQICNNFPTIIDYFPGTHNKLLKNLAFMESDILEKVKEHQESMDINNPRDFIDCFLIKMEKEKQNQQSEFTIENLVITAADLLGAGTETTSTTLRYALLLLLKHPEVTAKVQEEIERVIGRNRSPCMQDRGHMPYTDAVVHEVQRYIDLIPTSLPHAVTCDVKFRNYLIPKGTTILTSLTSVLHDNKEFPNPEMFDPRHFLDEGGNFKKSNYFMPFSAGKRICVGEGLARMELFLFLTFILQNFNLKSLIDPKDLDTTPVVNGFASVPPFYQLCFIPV
Cytochrome P450 2C9, sequence (P11712 whole entry): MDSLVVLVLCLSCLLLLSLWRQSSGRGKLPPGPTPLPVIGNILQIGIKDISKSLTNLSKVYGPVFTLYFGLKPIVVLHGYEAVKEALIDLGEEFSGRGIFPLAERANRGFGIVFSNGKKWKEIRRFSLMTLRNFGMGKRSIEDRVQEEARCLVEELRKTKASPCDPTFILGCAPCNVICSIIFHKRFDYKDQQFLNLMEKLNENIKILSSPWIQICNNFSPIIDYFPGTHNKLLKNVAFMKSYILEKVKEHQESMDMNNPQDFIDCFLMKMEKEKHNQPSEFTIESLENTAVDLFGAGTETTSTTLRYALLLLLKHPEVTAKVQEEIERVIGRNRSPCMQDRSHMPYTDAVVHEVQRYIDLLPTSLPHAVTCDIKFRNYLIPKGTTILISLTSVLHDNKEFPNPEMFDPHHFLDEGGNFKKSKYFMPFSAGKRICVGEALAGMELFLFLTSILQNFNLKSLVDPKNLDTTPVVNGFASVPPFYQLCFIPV
Cytochrome P450 3A4, sequence (P08684 whole entry): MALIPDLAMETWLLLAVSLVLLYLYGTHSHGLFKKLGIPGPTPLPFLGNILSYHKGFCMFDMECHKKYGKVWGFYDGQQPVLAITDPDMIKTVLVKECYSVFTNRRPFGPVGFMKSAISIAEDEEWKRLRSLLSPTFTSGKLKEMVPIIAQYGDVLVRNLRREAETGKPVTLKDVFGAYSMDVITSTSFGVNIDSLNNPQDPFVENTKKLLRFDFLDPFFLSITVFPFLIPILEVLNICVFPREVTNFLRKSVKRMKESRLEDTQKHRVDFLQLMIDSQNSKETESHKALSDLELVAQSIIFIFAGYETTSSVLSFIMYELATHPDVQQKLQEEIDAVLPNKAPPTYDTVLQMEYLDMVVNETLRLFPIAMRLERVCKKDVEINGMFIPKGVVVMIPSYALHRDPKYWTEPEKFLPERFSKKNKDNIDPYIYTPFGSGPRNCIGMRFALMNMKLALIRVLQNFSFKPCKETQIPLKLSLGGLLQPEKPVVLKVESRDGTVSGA

COc1cc(/C=C(\C#N)c2nc3ccccc3[nH]2)ccc1Oc1ccc([N+](=O)[O-])cn1
EC50 [1]: > 30 µM (not active) | EC50 [2]: 1.12 µM (active)

O=C(NCC(c1cccs1)N1CCOCC1)c1ccc(Cl)s1 (stereo unspecified)
AC50 [3]: 2.89 µM (active)

CCc1cc2cc(C)c(C)cc2nc1SCC(=O)NNC(=O)c1ccco1
AC50 [4]: 0.794 µM (inconclusive)

CC(C)C12CN3CC(C(C)C)(CN(C1)C3c1cccnc1)C2=O (stereo unspecified)
AC50 [4]: 25.1 µM (inconclusive) | AC50 [5]: 3.16 µM (inconclusive)

O=S(=O)(O)c1cc(/N=[N+](\[O-])c2cc(S(=O)(=O)O)c3ccccc3c2)cc2ccccc12
AC50 [4]: 1.26 µM (inconclusive) | AC50 ([6]; read-out: AC50): 3.98 µM (inconclusive) | AC50 [5]: 7.94 µM (inconclusive)

Nc1ccccc1/N=N\c1c(S(=O)(=O)O)cc2cc(S(=O)(=O)O)cc(O)c2c1O
AC50 [4]: 6.31 µM (inconclusive)

O=C(Nc1ccccc1)N1CC2(CCN(C(=O)c3ccncc3)CC2)C1
AC50 [7]: 25.1 µM (inconclusive) | AC50 [4]: 10 µM (inconclusive)

CC1(C)Cc2ccccc2C(N/N=C/c2cccc(F)c2)=N1
AC50 ([6]; read-out: AC50): 25.1 µM (inconclusive)

CC(=O)Nc1ccc(C2=CC(=O)C[C@H](c3ccc4c(c3)OCO4)C2)cc1
AC50 [8]: > 260 µM (inactive)

CCOc1ccc(C(F)(F)F)cc1NC(=O)c1ccc(OC)c([N+](=O)[O-])c1
AC50 [7]: 22.4 µM (inconclusive) | AC50 ([6]; read-out: AC50): 0.282 µM (inconclusive)

O=c1c(-c2ccc(Cl)cc2)nc2cncnc2n1Cc1ccccc1Cl
AC50 [7]: 12.6 µM (inconclusive) | AC50 [4]: 1.26 µM (inconclusive)

CN1CCN(C(=O)COc2ccc(S(=O)(=O)N(C)Cc3ccccc3)cc2)CC1
EC50 [1]: > 60 µM (not active) | EC50 [2]: 0.189 µM (active)

COc1cc2nncc(SCc3ccc(Cl)c(Cl)c3)c2cc1OC
AC50 [7]: 2 µM (inconclusive) | AC50 [4]: 0.794 µM (inconclusive)

COc1cccc2cc3c(=O)oc4ccccc4c3nc12
AC50 [5]: 2.82 µM (inconclusive)

NC(=O)Cn1nc([N+](=O)[O-])nc1Oc1ccc(Br)cc1
EC50 [1]: > 60 µM (not active) | EC50 [2]: 0.174 µM (active)

CCOC(=O)c1ccc(Nc2cc(C)nc(-c3ccccc3)n2)cc1
AC50 [3]: 2.1 µM (active)

COc1ccc(C2NC(=O)c3sc4nc(C)c(C(C)=O)c(-c5ccc(Cl)cc5)c4c3N2)cc1 (stereo unspecified)
AC50 ([6]; read-out: AC50): 2 µM (inconclusive)

CCOCCCNC(=O)c1cnc2cc(OC)ccc2c1O
AC50 [8]: > 260 µM (inactive)

COC(=O)[C@@]1(Cc2ccc(F)cc2)[C@H]2c3cc(C(=O)N4CCCC4)n(Cc4ccccc4)c3C[C@H]2CN1C(=O)c1ccccc1
AC50 [4]: 20 µM (inconclusive) | AC50 ([6]; read-out: AC50): 31.6 µM (inconclusive)

Cn1cc(-c2nc3cnc(Oc4ccccc4)nc3n(CCC#N)c2=O)c2ccccc21
AC50 [7]: 7.94 µM (inconclusive) | AC50 [4]: 3.16 µM (inconclusive)

CCCN(C/C=C\I)[C@@H]1CCc2ccc(O)cc2C1
AC50 [4]: 25.1 µM (inconclusive) | AC50 [5]: 25.1 µM (inconclusive)

Cc1cccc(C)c1NC(=O)C[S+]([O-])CC(=O)Nc1ccc(F)cc1F (stereo unspecified)
AC50 [7]: 14.1 µM (inconclusive) | AC50 [5]: 39.8 µM (inconclusive)

CCOc1ncnc2c1oc1nc(CC(C)C)c3c(c12)CC(C)(C)OC3
AC50 [4]: 22.4 µM (inconclusive) | AC50 ([6]; read-out: AC50): 39.8 µM (inconclusive)

N#Cc1cc([N+](=O)[O-])ccc1Oc1cccc(/C=N/NC(=O)c2cccc(Cl)c2)c1
EC50 [1]: > 60 µM (inconclusive) | EC50 [2]: 0.531 µM (active)

CCOC(=O)Cn1cc(C(=O)c2ccccc2F)c2ccccc21
AC50 [7]: 35.5 µM (inconclusive)

COc1ccccc1NC(=O)Cn1nnc(-c2ccccc2NC(=O)c2cc3ccccc3oc2=O)n1
AC50 [4]: 15.8 µM (inconclusive) | AC50 [5]: 0.794 µM (inconclusive)

Cc1ccc(Nc2nc(-c3sc(NC(=O)c4cccc(Cl)c4)nc3C)cs2)cc1
AC50 [7]: 11.2 µM (inconclusive) | AC50 [4]: 14.1 µM (inconclusive)

COc1ccc(-c2nn(-c3ccccc3)cc2/C=N/Nc2ccc3ccccc3n2)cc1OC
AC50 [8]: 1.5 µM (active)

CC[n+]1ccccc1C=Cc1ccc(N(C)C)cc1
EC50 [1]: > 60 µM (not active) | EC50 [2]: 0.572 µM (active)

O=C(O)COc1ccc(-c2nccc(-c3cccs3)n2)cc1
AC50 [4]: 15.8 µM (inconclusive) | AC50 ([6]; read-out: AC50): 31.6 µM (inconclusive)

O=[N+]([O-])c1ccc(S(=O)(=O)N2CCN(c3ccc(N4CCOCC4)nn3)CC2)cc1
EC50 [1]: > 60 µM (not active) | EC50 [2]: 1.12 µM (active)

C[C@@]12CC[C@H]3[C@@H](CC[C@@H]4C[C@H](O)CC[C@]43C)[C@H]1CC[C@H]2O
AC50 [7]: 10 µM (inconclusive) | AC50 [4]: 15.8 µM (inconclusive) | AC50 ([6]; read-out: AC50): 31.6 µM (inconclusive) | AC50 [5]: 25.1 µM (inconclusive)

O=c1cnc2cnc(Nc3ccccc3)nc2n1CCc1ccccc1
AC50 [5]: 0.251 µM (inconclusive)

NNc1ncnc2scc(-c3ccc(Cl)cc3)c12
AC50 [8]: 6.34 µM (active)

O=C(O)C1=CCCN(CCOC(c2ccc(C(F)(F)F)cc2)c2ccc(C(F)(F)F)cc2)C1
AC50 [7]: 39.8 µM (inconclusive)

COCC1C2CC[C@H]3C(OCc4ccc(F)cc4C(F)(F)F)OC[C@]4(C)[C@H]3C2=C(CN4C(=O)OC(C)(C)C)[C@H](C)C1COC (stereo partly specified)
AC50 [4]: 31.6 µM (inconclusive) | AC50 ([6]; read-out: AC50): 39.8 µM (inconclusive) | AC50 [5]: 20 µM (inconclusive)

COc1ccccc1C(=O)Nn1c(C2CCC2)nc2ccccc2c1=O
EC50 [1]: > 30 µM (not active) | EC50 [2]: 2.13 µM (active)

CC1(C)C(C=C(Cl)Cl)C1C(=O)Nc1ccc([N+](=O)[O-])cc1 (stereo unspecified)
AC50 [8]: 7.67 µM (active)

O=C(O)c1ccccc1-c1ccccc1C(=O)Nc1ccc2c(c1)Cc1ccccc1-2
AC50 [5]: 3.16 µM (inconclusive)

COc1ccccc1/C=C/C(=O)NCC(=O)N/N=C/c1ccccc1[N+](=O)[O-]
EC50 [1]: > 60 µM (not active) | EC50 [2]: 1.59 µM (active)

CCOc1cc(/C=N/NC(=O)CNc2cccc(C)c2)ccc1OC(=O)c1ccccc1
AC50 [4]: 14.1 µM (inconclusive)

O=C1OC(OC2CCCCC2)(c2ccccc2)c2ccccc21 (stereo unspecified)
AC50 [7]: 15.8 µM (inconclusive) | AC50 [5]: 15.8 µM (inconclusive)

O=C(/C=C\NCC(=O)c1ccccc1)c1ccccc1
AC50 [5]: 1.78 µM (inconclusive)

CCc1c(C)nc2c(-c3ccccc3)c(C)nn2c1Nc1ccc(NC(C)=O)cc1
EC50 [1]: > 60 µM (not active) | EC50 [2]: 1.29 µM (active)

O=C(Nc1cccc(-c2cn3cccnc3n2)c1)c1ccc(Br)o1
EC50 [1]: > 60 µM (not active) | EC50 [2]: 0.554 µM (active)

Cc1cnc(CNc2ccnc(-c3ccoc3)n2)cn1
AC50 [7]: 25.1 µM (inconclusive)

COc1cc([N+](=O)[O-])ccc1NC(=O)CC1S/C(=N\c2ccc(F)cc2)N(CCC2=CCCCC2)C1=O (stereo unspecified)
AC50 [8]: 4.29 µM (active)

N=C(N)SCc1ccc(Cl)cc1Cl.O=[N+]([O-])c1c(O)c(Cl)cc(Cl)c1Cl
AC50 [5]: 7.94 µM (inconclusive)

Oc1ccc2c3c1O[C@H]1c4c(c5ccccc5n4Cc4ccccc4)C[C@]4(O)[C@H](C2)N(CC2CC2)CC[C@@]314
AC50 [4]: 31.6 µM (inconclusive)

COCCNC(=O)c1onc(CSc2ccccc2F)c1C(=O)O
AC50 [7]: 35.5 µM (inconclusive) | AC50 ([6]; read-out: AC50): 0.141 µM (inconclusive)

O=C(Nc1cc(C(F)(F)F)ccc1-n1cncn1)c1ccc(-c2ccccc2)cc1
EC50 [1]: > 60 µM (not active) | EC50 [2]: 0.489 µM (active)

CCc1ccc(-n2c(C)cc(/C=N/NC(=O)c3ccncc3)c2C)cc1
AC50 [8]: 14.9 µM (active)

CCC(=O)Nc1cccc(NC(=O)CSc2nnnn2Cc2ccccc2)c1
AC50 [7]: 3.55 µM (inconclusive) | AC50 [5]: 5.01 µM (inconclusive)

C=CC[C@@H]1C=C[C@@H](O/N=C\c2ccc(C(=O)N3[C@H](c4ccc(C)cc4)[C@@H](C)CC[C@H]3C(=O)OC)cc2)[C@@H](CO)O1
AC50 ([6]; read-out: AC50): 3.16 µM (inconclusive)

O=C(O)c1ccccc1N[C@H](c1ccccc1)c1ccc2cccnc2c1O
AC50 [4]: 1.58 µM (inconclusive) | AC50 [5]: 5.01 µM (inconclusive)

FC(F)(F)c1ccccc1-c1ccc2ncnc(NCc3cccs3)c2c1
AC50 [5]: 1 µM (inconclusive)

Clc1ccccc1OCCCCn1ccnc1
EC50 [1]: > 60 µM (not active) | EC50 [2]: 2.05 µM (active)

CCN1CCC[C@@H](OC(=O)C(c2ccccc2)c2ccccc2)C1 [PIPERIDOLATE]
AC50 [4]: 0.00126 µM (inconclusive)

Cn1c(-c2ccccc2)cc2c3no[n+]([O-])c3ccc21
EC50 [1]: 8.01 µM (active) | EC50 [2]: 0.707 µM (active) | AC50 [8]: 2.09 µM (active)

C[C@@H](C(=O)NCc1cccc2ccccc12)[C@H]1C[C@]1(C)[C@H](NC(=O)OCc1ccccc1)c1ccccc1
AC50 [4]: 25.1 µM (inconclusive)

O=C(CSc1nc2ccccc2o1)NC(=O)NCc1ccccc1
AC50 [7]: 22.4 µM (inconclusive)

Cc1cccc(C)c1NC(=O)COc1cccc(/C=N/NC(=O)C(=O)NCc2ccccc2)c1
AC50 [6]: inconclusive

Cc1c(Br)c([N+](=O)[O-])nn1C(C)C(=O)Nc1nccs1 (stereo unspecified)
AC50 [4]: 22.4 µM (inconclusive)
